Test results as given in patent US20260256143A1, “HERBICIDAL COMPOSITION AND METHOD FOR CONTROLLING WEEDS” (Enko Chem, Inc., priority 2023, published 2026).
Like-named read-outs stand apart in the source and are kept apart here.

Legend:
AMATU [1] = test: Greenhouse pre-emergence residual test (Example 73); type: in vivo, Amaranthus rudis; details: 17-21 DAT
Experimental: (§1) Compound 1 was tested at several doses for residual weed control efficacy by itself or in combination as a tank mix with commercial herbicides. The following commercial products were used in tank mix with a 10% active emulsifiable concentrate formulation of Compound 1: S-metolachlor (Dual Magnum®, Syngenta), mesotrione (Callisto®, Syngenta), pyroxasulfone (Zidua® SC, BASF), metribuzin (Tricor DF™, United Phosphorus, Inc).
(§2) Accordingly, weed seeds were planted in 2-inch pots containing custom field soil mix (sandy loam with 3.3% organic matter, pH 7.0) and covered with a fine layer of the same soil. Three replicate pots were treated with each compound. Treatment consisting of the above formulation excluding active compound was applied as a treatment control (TC). Pots were treated with the test compound solution in a laboratory spray chamber fitted with 8003 even fan nozzles calibrated to deliver 187-200 L ha^−1 at 269 kPa. All treatments included the following inert ingredients in the final formulation; 1% Crop Oil Concentrate (v/v) (AGRI-DEX, Helena Agri) and 2.5% Ammonium sulphate (w/v). Compound 1 was incorporated into the soil by simulating rainfall equivalent to 0.2 mm using the same track sprayer. Subsequently, pots were irrigated from the bottom until weed control evaluation. Pots were placed back in the greenhouse and evaluated for percentage visual growth and germination inhibition compared to TC 17-21 days after treatment (DAT). Complete growth inhibition is represented by 100%.

ECHCG [2] = test: Greenhouse post-emergence foliar test (Example 72); type: in vivo; details: Echinochloa crus-galli, 336 h, read-out: % Visual growth inhibition (ECHCG)
Experimental: (§3) Compound 1 was tested at several doses for foliar weed control efficacy by itself or in combination with other herbicides.
(§4) The weed seeds were sown in 10″×20″ trays and propagated up to the transplanting stage which is 1-2 emerging leaves. One plant was then transplanted into 7×7×8 cm pots and sprayed with the compounds when plants reached the 3-4 true leaf stage for grass species or 10-15 cm for broadleaf species. The plants were propagated in a greenhouse with 26-28° C. day, 20-22° C. night temperature at 50-60%0 relative humidity and supplemental light using high pressure sodium grow lights when necessary. Three weeks after sowing, plants were sprayed with the test compound solution in a laboratory spray chamber fitted with 8003 even fan nozzle calibrated to deliver 187 L ha^−1 at 269 kPa. All treatments included the following inert ingredients in the final formulation; […] (AGRI-DEX®, Helena Agri), 2.5% Ammonium sulphate (w/v), and 0.1% Tween-20 (v/v). Plants were evaluated for percentage visual growth inhibition compared to treated control, 14 days after treatment (DAT).

CHEAL [3] = test: Greenhouse pre-emergence residual test (Example 73); type: in vivo, Chenopodium album; details: 17-21 DAT
Experimental: as §1, §2

ECHCG [4] = test: as above; type: in vivo, Echinochloa crus-galli; details: 17-21 DAT
Experimental: as §1, §2

ALOMY = test: as above; type: in vivo, Alopecurus myosuroides; details: 17-21 DAT
Experimental: as §1, §2

KCHSC = test: as above; type: in vivo, Bassia scoparia; details: 17-21 DAT
Experimental: as §1, §2

AMATU [5] = test: Greenhouse post-emergence foliar test (Example 72); type: in vivo, Amaranthus rudis; details: Amaranthus tuberculatus, 336 h, read-out: % Visual growth inhibition (AMATU)
Experimental: as §3, §4

AMAPA [6] = test: Greenhouse pre-emergence residual test (Example 73); type: in vivo, Amaranthus palmeri; details: 17-21 DAT
Experimental: as §1, §2

DIGSA = test: as above; type: in vivo, Digitaria sanguinalis; details: 17-21 DAT
Experimental: as §1, §2

AMATU [7] = test: Field test, post-emergence foliar application (Example 70); type: in vivo, Amaranthus rudis; details: glyphosate 1120 g a.i./ha, 2 weeks after application
Experimental: (§5) Compound 1 and Compound 1 mixed with glyphosate were tested at different field locations to evaluate the herbicides efficacy for controlling weeds by post-emergence foliar application. All herbicide treatments were applied with a backpack CO2 pressurized sprayer at 190 L/ha volume. The applications were made after the weeds emerged and reached the 5 to 12 cm size range. Herbicide treatments included Compound 1 formulated as 10% emulsified concentrate, glyphosate as a commercial formulation (Roundup Power Max, Monsanto), or a mixture of Compound 1 and glyphosate products prepared as a “tank-mix” before the field application. All herbicide field spray solution included ammonium sulfate and concentrated crop oil adjuvant to a final solution concentration of 2% and 1% respectively. Different weeds species were assessed at the separate field locations. For each species, the herbicide efficacy to control weeds, assessed as % of dead plants relative to the untreated control plots, was evaluated at 2 weeks after the herbicide application to account for weed re-growth.

CHEAL [8] = test: as above; type: in vivo, Chenopodium album; details: glyphosate 1120 g a.i./ha, 2 weeks after application
Experimental: as §5

SETFA = test: as above; type: in vivo, Setaria faberi; details: Loc 15; glyphosate 1120 g a.i./ha; 2 weeks after application
Experimental: as §5

ABUTH = test: as above; type: in vivo, Abutilon theophrasti; details: Loc 13; glyphosate 1120 g a.i./ha; 2 weeks after application
Experimental: as §5

AMAPA [9] = test: as above; type: in vivo, Amaranthus palmeri; details: Loc 13; glyphosate 1120 g a.i./ha; 2 weeks after application
Experimental: as §5

Structure (SMILES): CS(=O)(=O)c1ccc(C(=O)C2C(=O)CCCC2=O)c([N+](=O)[O-])c1 [mesotrione]
- inhibition at 210 g/ha (AMATU [1]; Amaranthus tuberculatus, pre-emergence, Dose 210 g a.i./ha, read-out: Pre-emergence percent weed growth and germination inhibition AMATU): 75%
- inhibition at 105 g/ha (ECHCG [2]; Dose 105 g a.i./ha, 14 DAT): 95%
- inhibition at 210 g/ha (CHEAL [3]; Chenopodium album, pre-emergence, Dose 210 g a.i./ha, read-out: Pre-emergence percent weed growth and germination inhibition CHEAL): 100%
- inhibition at 210 g/ha (ECHCG [4]; Echinochloa crus-galli, pre-emergence, Dose 210 g a.i./ha, read-out: Pre-emergence percent weed growth and germination inhibition ECHCG): 33%
- inhibition at 210 g/ha (ALOMY; Alopecurus myosuroides, pre-emergence, Dose 210 g a.i./ha, read-out: Pre-emergence percent weed growth and germination inhibition ALOMY): 20%
- inhibition at 210 g/ha (KCHSC; Bassia scoparia, pre-emergence, Dose 210 g a.i./ha, read-out: Pre-emergence percent weed growth and germination inhibition KCHSC): 77%
- inhibition at 105 g/ha (AMATU [5]; Dose 105 g a.i./ha, 14 DAT): 61%
- inhibition at 210 g/ha (AMAPA [6]; Amaranthus palmeri, pre-emergence, Dose 210 g a.i./ha, read-out: Pre-emergence percent weed growth and germination inhibition AMAPA): 53%
- inhibition at 210 g/ha (DIGSA; Digitaria sanguinalis, pre-emergence, Dose 210 g a.i./ha, read-out: Pre-emergence percent weed growth and germination inhibition DIGSA): 82%

Structure (SMILES): CP(=O)(O)CCC(N)C(=O)O (stereo not shown) [glufosinate]
- inhibition at 450 g/ha (ECHCG [2]): 41%
- inhibition at 450 g/ha (AMATU [5]): 96%

Structure (SMILES): CCc1cccc(C)c1N(C(=O)CCl)[C@@H](C)COC [S-metolachlor]
- Pre-emergence percent weed growth and germination inhibition AMATU (AMATU [1]; Dose 1000 g a.i./ha): 80%
- Pre-emergence percent weed growth and germination inhibition CHEAL (CHEAL [3]; Dose 1000 g a.i./ha): 50%
- Pre-emergence percent weed growth and germination inhibition ECHCG (ECHCG [4]; Dose 1000 g a.i./ha): 93%
- Pre-emergence percent weed growth and germination inhibition ALOMY (ALOMY; Dose 1000 g a.i./ha): 30%
- Pre-emergence percent weed growth and germination inhibition KCHSC (KCHSC; Dose 1000 g a.i./ha): 57%
- Pre-emergence percent weed growth and germination inhibition AMAPA (AMAPA [6]; Dose 1000 g a.i./ha): 65%
- Pre-emergence percent weed growth and germination inhibition DIGSA (DIGSA; Dose 1000 g a.i./ha): 80%

Structure (SMILES): COc1c(Cl)ccc(Cl)c1C(=O)O [dicamba, 3,6-dichloro-2-methoxybenzoic acid]
- inhibition at 280 g/ha (ECHCG [2]; Dose 280 g a.i./ha, 14 DAT): 5%
- inhibition at 280 g/ha (AMATU [5]; Dose 280 g a.i./ha, 14 DAT): 74%

Structure (SMILES): CSc1nnc(C(C)(C)C)c(=O)n1N [metribuzin]
- inhibition at 200 g/ha (AMATU [1]; Amaranthus tuberculatus, pre-emergence, Dose 200 g a.i./ha, read-out: Pre-emergence percent weed growth and germination inhibition AMATU): 65%
- inhibition at 200 g/ha (CHEAL [3]; Chenopodium album, pre-emergence, Dose 200 g a.i./ha, read-out: Pre-emergence percent weed growth and germination inhibition CHEAL): 100%
- inhibition at 200 g/ha (ECHCG [4]; Echinochloa crus-galli, pre-emergence, Dose 200 g a.i./ha, read-out: Pre-emergence percent weed growth and germination inhibition ECHCG): 12%
- inhibition at 200 g/ha (ALOMY; Alopecurus myosuroides, pre-emergence, Dose 200 g a.i./ha, read-out: Pre-emergence percent weed growth and germination inhibition ALOMY): 12%
- inhibition at 200 g/ha (KCHSC; Bassia scoparia, pre-emergence, Dose 200 g a.i./ha, read-out: Pre-emergence percent weed growth and germination inhibition KCHSC): 100%
- inhibition at 200 g/ha (AMAPA [6]; Amaranthus palmeri, pre-emergence, Dose 200 g a.i./ha, read-out: Pre-emergence percent weed growth and germination inhibition AMAPA): 20%
- inhibition at 200 g/ha (DIGSA; Digitaria sanguinalis, pre-emergence, Dose 200 g a.i./ha, read-out: Pre-emergence percent weed growth and germination inhibition DIGSA): 13%

Structure (SMILES): O=C(O)COc1ccc(Cl)cc1Cl [2,4-D acid, 2,4-dichlorophenoxyacetic acid]
- inhibition at 280 g/ha (ECHCG [2]): 10%
- inhibition at 280 g/ha (AMATU [5]): 89%

Structure (SMILES): O=C(O)CNCP(=O)(O)O [glyphosate]
- inhibition at 860 g/ha (ECHCG [2]): 84%
- % dead AMATU (AMATU [7]; Loc 11): 88%
- % dead AMATU (AMATU [7]; Loc 12): 50%
- % dead AMATU (AMATU [7]; Loc 14): 32%
- % dead AMATU (AMATU [7]; Loc 15): 12%
- % dead CHEAL (CHEAL [8]; Loc 11): 88%
- % dead CHEAL (CHEAL [8]; Loc 14): 88%
- % dead SETFA (SETFA): 100%
- % dead ABUTH (ABUTH): 85%
- inhibition at 1000 g/ha (AMATU [5]): 60%
- % dead AMAPA (AMAPA [9]): 13%
